Values of other authors, collected in patent publication US20070032536A1, “Compounds, compositions and methods” (priority 2003, published 2007).

Test system: A549 cells
Conditions: data provided by National Cancer Institute, Developmental Therapeutic Program

## O=c1[nH]cc(F)c(=O)[nH]1 [5-fluorouracil]
  GI50: 1000 nM

## CC(=O)O[C@H]1C(=O)[C@@]2(C)[C@H]([C@H](OC(=O)c3ccccc3)[C@]3(O)C[C@H](OC(=O)[C@H](O)[C@@H](NC(=O)c4ccccc4)c4ccccc4)C(C)=C1C3(C)C)[C@]1(OC(C)=O)CO[C@@H]1C[C@@H]2O [paclitaxel]
  GI50: 4 nM

## COc1cccc2c1C(=O)c1c(O)c3c(c(O)c1C2=O)C[C@@](O)(C(=O)CO)C[C@@H]3O[C@H]1C[C@H](N)[C@H](O)[C@H](C)O1 [doxorubicin]
  GI50: 63 nM

## NC(=O)NO [hydroxyurea]
  GI50: 500000 nM
